Source: US12116461B2, “Host-guest interactions for pa superstructure formation” (Northwestern University, priority 2020, dated 2024)
Where a SMILES comes first, the peptide text is derived from it. The star is where a group is joined. Palmitoyl = CCCCCCCCCCCCCCCC(=O)*

What was measured:
[1] = Rheological measurement of storage modulus; assay type: physicochemical; details: no free adamantane added
Procedure: (§1) PA materials were prepared and annealed using methods described in section 2.1.1. An Anton Paar MCR302 Rheometer with a 25 mm cone plate was used for all rheological studies. 150 μL of PA liquid was placed on the sample stage. For experiments using Free Adamantane, 30 μL of either 1 mM or 2 mM adamantane solution (prepared as described in section 2.1.3) was added in droplets to the top plunger. The plunger was then lowered to the measuring position and a humidity collar was added during the “sample trim” phase to prevent sample evaporation during the measurement. The sample was equilibrated for 30 minutes with a constant angular frequency of 10 rad/s and 0.1% strain. The storage and loss modulus were recorded. For thixotropy studies, the sample was applied to the stage as previously mentioned. The first and third interval consisted of 10, 6 second points with an oscillating shear strain of 0.1% and angular frequency of 10 rad/s. The storage and loss modulus were plotted against time. The second interval consisted of 10, 1 second points with a constant shear rate of 100 s^−1. The viscosity was plotted against time. For recovery experiments, G′ and G″ were measured during alternating intervals of low and high strain. The low strain interval was 200 seconds at 0.5% strain and the high strain interval was 50 seconds at 50% strain.

[2] = Thixotropy interval study (before/after high shear); assay type: physicochemical
Procedure: as §1

[3] = 1H-NMR titration, association constant of β-cyclodextrin with 1-adamantaneacetic acid; details: 1:1 host-guest binding model; 125 mM NaCl, 3 mM KCl buffer pH 7.2-7.4, 25° C.
Procedure: The association constant for the binding between 1-adamantaneacetic acid and β-cyclodextrin was measured in 125 mM NaCl and 3 mM KCl buffer at pH 7.2-7.4. In a typical titration experiment, small amounts of a “guest solution” (100 mM 1-adamantaneacetic acid and 3.5 mM β-cyclodextrin in deuterated buffer) were added to approximately 0.8 ml of “host solution” (3.5 mM β-cyclodextrin in deuterated buffer) until at least 5 equiv of “guest” molecules were added. 1H-NMR spectra were obtained at 25° C. upon each addition of the “guest” solution and a binding isotherm was constructed by monitoring the protons on 1-adamantaneacetic acid.
The binding isotherms were fit to a standard 1:1 host-guest binding model (Eq. 1-3) where [HG] is the concentration of host-guest complex, [H]0 is the total concentration of “host” molecules, [G]0 is the total concentration of “guest” molecules, do is the proton peak position at [HG]/[H]0=0, δ is the proton peak position measured at different values of [HG]/[H]0, and δ∞ is a fitting parameter. All spectra were obtained with a X500 Bruker Avance III HD system equipped with a TXO Prodigy probe and analyzed with the MestreNova (Mestrelab Research) software.

storage modulus (G′) [1] [Pa] | G′ after high shear ([2]; after high shear) [Pa] | G′ before high shear ([2]; before high shear) [Pa] | Compound | association constant (Ka) [3] [M⁻¹]
20±12 | 26.8 | 43.9 | CCCCCCCCCCCCCCCC(=O)N[C@H](C(=O)N[C@H](C(=O)N[C@@H](C)C(=O)N[C@@H](C)C(=O)N[C@@H](CCC(=O)O)C(=O)N[C@@H](CCC(=O)O)C(N)=O)C(C)C)C(C)C [E2 PA, C16V2A2E2] (Palmitoyl-VVAAEE-NH2) | –
– | – | – | OC[C@H]1O[C@@H]2O[C@H]3[C@H](O)[C@@H](O)[C@@H](O[C@H]4[C@H](O)[C@@H](O)[C@@H](O[C@H]5[C@H](O)[C@@H](O)[C@@H](O[C@H]6[C@H](O)[C@@H](O)[C@@H](O[C@H]7[C@H](O)[C@@H](O)[C@@H](O[C@H]8[C@H](O)[C@@H](O)[C@@H](O[C@H]1[C@H](O)[C@H]2O)O[C@@H]8CO)O[C@@H]7CO)O[C@@H]6CO)O[C@@H]5CO)O[C@@H]4CO)O[C@@H]3CO [β-cyclodextrin] | 395
